This is an account of results in ChEMBL document CHEMBL5653631, “A Potent and Selective ULK1 Inhibitor Suppresses Autophagy and Sensitizes Cancer Cells to Nutrient Stress” (iScience, 2018).

Assay [1] has as its target T1, Serine/threonine-protein kinase Nek1 (Homo sapiens) (UniProt Q96PY6).
T1 sequence (whole entry): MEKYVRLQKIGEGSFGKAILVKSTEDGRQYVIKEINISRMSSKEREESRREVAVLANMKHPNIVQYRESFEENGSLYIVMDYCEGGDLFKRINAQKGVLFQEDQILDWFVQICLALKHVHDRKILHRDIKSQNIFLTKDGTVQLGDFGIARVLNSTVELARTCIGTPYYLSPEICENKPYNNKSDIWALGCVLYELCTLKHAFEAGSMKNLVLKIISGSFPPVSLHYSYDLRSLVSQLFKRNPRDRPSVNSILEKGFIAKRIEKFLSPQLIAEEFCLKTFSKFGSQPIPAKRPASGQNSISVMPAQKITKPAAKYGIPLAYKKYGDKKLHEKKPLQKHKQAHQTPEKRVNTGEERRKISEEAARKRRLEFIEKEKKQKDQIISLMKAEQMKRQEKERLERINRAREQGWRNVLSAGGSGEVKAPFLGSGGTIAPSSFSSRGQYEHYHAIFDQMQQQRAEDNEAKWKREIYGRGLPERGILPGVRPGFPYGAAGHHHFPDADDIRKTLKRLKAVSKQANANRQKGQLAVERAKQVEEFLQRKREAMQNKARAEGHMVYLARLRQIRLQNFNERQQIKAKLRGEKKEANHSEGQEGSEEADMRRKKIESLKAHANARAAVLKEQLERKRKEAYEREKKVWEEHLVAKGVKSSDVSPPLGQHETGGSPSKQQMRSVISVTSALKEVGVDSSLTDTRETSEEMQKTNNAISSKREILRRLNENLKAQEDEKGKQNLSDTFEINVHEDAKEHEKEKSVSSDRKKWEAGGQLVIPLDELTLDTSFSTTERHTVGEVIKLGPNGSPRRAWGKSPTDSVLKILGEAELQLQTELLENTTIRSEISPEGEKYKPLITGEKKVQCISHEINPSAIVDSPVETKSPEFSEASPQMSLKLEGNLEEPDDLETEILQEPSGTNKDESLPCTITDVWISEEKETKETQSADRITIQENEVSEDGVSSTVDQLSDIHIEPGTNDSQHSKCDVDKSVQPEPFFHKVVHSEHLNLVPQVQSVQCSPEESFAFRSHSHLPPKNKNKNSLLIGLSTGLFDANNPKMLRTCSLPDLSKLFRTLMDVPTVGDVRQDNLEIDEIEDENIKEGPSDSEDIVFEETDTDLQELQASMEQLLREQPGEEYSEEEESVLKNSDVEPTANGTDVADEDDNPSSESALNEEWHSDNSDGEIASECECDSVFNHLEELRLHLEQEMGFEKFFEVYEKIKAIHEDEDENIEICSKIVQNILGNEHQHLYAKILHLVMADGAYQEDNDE
Description: Inhibition of human recombinant NEK1 at 40 nM related to control ULK1.

Assay [2] concerns the target T2, Ephrin type-B receptor 3 (Homo sapiens) (UniProt P54753).
T2 sequence (whole entry): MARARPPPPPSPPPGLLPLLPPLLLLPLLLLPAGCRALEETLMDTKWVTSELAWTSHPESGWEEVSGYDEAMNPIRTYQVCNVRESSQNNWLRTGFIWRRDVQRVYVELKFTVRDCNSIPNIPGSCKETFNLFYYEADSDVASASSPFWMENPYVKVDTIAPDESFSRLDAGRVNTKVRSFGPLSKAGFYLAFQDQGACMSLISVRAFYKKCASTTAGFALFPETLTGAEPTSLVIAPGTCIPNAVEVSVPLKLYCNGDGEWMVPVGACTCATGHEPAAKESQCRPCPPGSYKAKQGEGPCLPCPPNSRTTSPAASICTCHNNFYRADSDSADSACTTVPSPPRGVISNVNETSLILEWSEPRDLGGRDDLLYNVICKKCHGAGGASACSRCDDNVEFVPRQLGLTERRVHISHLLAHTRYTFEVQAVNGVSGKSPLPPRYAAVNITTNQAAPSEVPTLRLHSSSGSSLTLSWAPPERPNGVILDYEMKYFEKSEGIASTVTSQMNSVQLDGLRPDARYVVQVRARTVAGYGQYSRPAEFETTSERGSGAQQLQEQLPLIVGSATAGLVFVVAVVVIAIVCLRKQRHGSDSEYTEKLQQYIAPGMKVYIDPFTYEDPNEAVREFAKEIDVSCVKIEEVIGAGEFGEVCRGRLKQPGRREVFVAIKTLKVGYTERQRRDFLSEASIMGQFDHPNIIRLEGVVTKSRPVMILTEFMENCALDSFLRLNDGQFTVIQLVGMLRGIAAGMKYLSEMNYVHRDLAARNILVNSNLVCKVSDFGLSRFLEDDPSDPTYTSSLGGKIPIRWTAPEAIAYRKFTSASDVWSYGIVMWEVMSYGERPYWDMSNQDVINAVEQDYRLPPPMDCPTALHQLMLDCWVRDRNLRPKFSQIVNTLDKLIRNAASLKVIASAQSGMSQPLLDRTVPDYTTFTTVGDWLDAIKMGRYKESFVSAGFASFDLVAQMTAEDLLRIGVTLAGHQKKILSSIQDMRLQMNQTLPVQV
The experiment in a line: Inhibition of human recombinant EphB3 at 500 nM in presence of ATP by radiometric assay relative to control.

Assay [3] addresses Calcium/calmodulin-dependent protein kinase type 1G (Homo sapiens) (UniProt Q96NX5). Description: Inhibition of human recombinant CaMK1g at 15 nM related to control ULK1.
For assay [4], the target named is MAP kinase-interacting serine/threonine-protein kinase 2 (Homo sapiens, UniProt Q9HBH9). The experiment in a line: Inhibition of human recombinant MNK2 at 15 nM related to control ULK1.
Sequence of MAP kinase-interacting serine/threonine-protein kinase 2 (Q9HBH9 whole entry, looked up): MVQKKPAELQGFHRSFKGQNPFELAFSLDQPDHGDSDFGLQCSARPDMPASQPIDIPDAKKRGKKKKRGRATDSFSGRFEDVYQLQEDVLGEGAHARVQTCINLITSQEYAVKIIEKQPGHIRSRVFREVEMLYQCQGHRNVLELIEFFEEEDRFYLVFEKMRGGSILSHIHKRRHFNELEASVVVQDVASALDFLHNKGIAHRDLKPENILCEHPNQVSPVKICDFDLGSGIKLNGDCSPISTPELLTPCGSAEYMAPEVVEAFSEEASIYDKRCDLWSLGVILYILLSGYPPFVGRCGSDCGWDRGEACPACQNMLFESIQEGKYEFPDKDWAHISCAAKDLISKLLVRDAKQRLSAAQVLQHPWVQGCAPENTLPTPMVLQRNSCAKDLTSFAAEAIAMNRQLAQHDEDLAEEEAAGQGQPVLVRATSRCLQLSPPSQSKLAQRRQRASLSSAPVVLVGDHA
In assay [5] the target is T3, Tyrosine-protein kinase ZAP-70 (Homo sapiens) (UniProt P43403).
T3 sequence (whole entry): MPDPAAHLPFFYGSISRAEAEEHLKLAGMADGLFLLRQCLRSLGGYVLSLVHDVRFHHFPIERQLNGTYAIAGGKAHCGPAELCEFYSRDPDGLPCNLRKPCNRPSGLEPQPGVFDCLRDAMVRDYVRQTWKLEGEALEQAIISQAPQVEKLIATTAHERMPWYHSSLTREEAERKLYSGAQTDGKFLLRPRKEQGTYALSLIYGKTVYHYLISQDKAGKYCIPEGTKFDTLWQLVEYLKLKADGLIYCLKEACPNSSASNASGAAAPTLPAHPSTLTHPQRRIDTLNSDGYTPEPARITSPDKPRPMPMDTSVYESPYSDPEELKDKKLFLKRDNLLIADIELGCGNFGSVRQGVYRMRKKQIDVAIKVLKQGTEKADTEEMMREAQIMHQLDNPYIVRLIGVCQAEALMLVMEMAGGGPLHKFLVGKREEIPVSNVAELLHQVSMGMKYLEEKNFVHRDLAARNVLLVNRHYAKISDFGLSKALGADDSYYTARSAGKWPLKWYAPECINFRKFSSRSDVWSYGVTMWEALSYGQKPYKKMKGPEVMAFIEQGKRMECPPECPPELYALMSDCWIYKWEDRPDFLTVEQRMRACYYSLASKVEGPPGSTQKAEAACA
The experiment in a line: Inhibition of human recombinant ZAP70 at 15 nM related to control ULK1.

Sequence of Calcium/calmodulin-dependent protein kinase type 1G (Homo sapiens) (Q96NX5 whole entry): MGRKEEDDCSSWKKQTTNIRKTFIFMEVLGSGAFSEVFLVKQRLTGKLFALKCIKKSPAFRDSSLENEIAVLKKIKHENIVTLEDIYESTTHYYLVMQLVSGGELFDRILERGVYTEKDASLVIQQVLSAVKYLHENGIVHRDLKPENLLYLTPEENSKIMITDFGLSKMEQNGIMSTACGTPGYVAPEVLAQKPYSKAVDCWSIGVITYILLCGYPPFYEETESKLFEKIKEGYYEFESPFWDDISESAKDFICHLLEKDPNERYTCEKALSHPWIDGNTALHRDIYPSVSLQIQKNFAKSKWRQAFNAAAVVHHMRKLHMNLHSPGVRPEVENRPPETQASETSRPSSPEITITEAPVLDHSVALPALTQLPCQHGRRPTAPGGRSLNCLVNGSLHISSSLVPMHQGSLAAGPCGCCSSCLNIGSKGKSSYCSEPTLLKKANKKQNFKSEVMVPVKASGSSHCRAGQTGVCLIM

With `O=C(N[C@@H](C1CC1)C(F)(F)F)c1cc(-c2cnn3cc(-c4ccc(F)cc4)cnc23)cs1`, in assay [1], the fold change (FC) stood at 0.
Turning to `CNC(=O)c1ccccc1Oc1nc(Nc2cc(OC)c(OC)c(OC)c2)ncc1Br`, the inhibition in assay [2] was 0%.
Turning to `CC(C)[C@H](NC(=O)c1cc(-c2cnn3cc(-c4ccc(OCCN5CCCCC5)cc4)cnc23)cs1)C(F)(F)F`, the fold change (FC) worked out at 0 in assay [3], 0.3 in assay [4] and 0 in assay [5].
